Laboratory results as given in patent publication US20220381657A1, “METHOD FOR PREPARING BIOLOGICAL MATERIAL HAVING EXCELLENT LIGHT-TRANSMITTING PROPERTY” (RIKEN, priority 2016, published 2022).
Structures can show the parent of a compound that is named as a salt. Where two headings read alike, the source gives them in different places.

How the values were obtained:
[1] = for 400 nm: OD at 400 nm of the chemical
bovine coagulated blood = test: Decoloring screening: heme eluted from bovine coagulated blood (OD420-OD700); conditions: decolorization; for 700 nm calibrated 420 nm Average: OD420 calibrated by OD700; for integrated value 500-700 nm Average: integrated absorbance 500-700 nm
Procedure: A high-throughput screening system for evaluating the decoloring ability of various compounds was constructed. The screening system involved adding an aqueous solution of each compound to bovine coagulated blood and then measuring the absorbance of heme collected in the supernatant.
Specifically, to bovine blood, an equal amount of 8% PFA solution was added, and reacted at 4° C. overnight. The mixed liquid was centrifuged at 1500×g for 5 minutes, and the supernatant containing PFA was discarded. Then, the same amount of PBS as the original volume of blood was added to prepare a coagulated blood sample. To 150 μL of 10 wt % aqueous solution of each compound, 50 μL of the coagulated blood sample was added, and reacted at 37° C. overnight. The reaction solution was centrifuged at 1500×g for 5 minutes, and then 100 μL of the supernatant was added to a plate so as to be subjected to absorbance measurement. A sample which is suspended in water instead of being dissolved in the water has a weak decoloring effect, but none the less has a high absorbance value. […]

Compound	pH (Table 4)	700 nm calibrated 420 nm Average (bovine coagulated blood)	integrated value 500-700 nm Average (bovine coagulated blood)	other results
CSCCC(NC(C)=O)C(=O)O (racemic) [#0360, N-Acetyl- DL-methionine]	2.75			
Cl.NC1CCSC1=O (racemic) [#1213, DL-Homocysteinethiolactone hydrochloride]	2.31			
NCCCCCO [#0003]		1.83	1.21	400 nm [1]: 0.052; pH ([…]): 12.5; Fluorescence quench Average (Serius; relative fluorescence): 0.63
NCCCCO [#0006]		1.22	0.82	400 nm [1]: 0.06; pH ([…]): 12.3; Fluorescence quench Average (Serius; relative fluorescence): 0.64
NCCCCCCO [#0007, 6-Amino-1-hexanol]		2.66	1.76	400 nm [1]: 0.093; pH ([…]): 11.9; Fluorescence quench Average (Serius; relative fluorescence): 0.22
O=C(O)CCCCCl [#0062, 5-Chlorovaleric acid]	2.86			
C=CCC(=O)O [#0073, 3-Butenoic acid]	3.43			
O=C(O)CCCCBr [#0074, 5-Bromovaleric acid]	2.39			
O=C(O)CCO [#0155, 3-Hydroxypropionic acid]	3.66			
Cl.O=C(O)CCP(CCC(=O)O)CCC(=O)O [#0197, Tris(2-carboxyethyl) phosphine hydrochloride]		4.28	3.89	Fluorescence quench Average (Serius): −0.05
CCOC(=O)[C@H]1CC[C@H](O)CC1 [#0216, Ethyl trans-4-hydroxy-cyclohexanecarboxylate]	5.68			
NCCCNCCNCCCN [#0277, N,N′-Bis(3-aminopropyl) ethylenediamine]		1.20	0.83	400 nm [1]: 0.053; pH ([…]): 13.1; Fluorescence quench Average (Serius; relative fluorescence): 0.71
CC(=O)N[C@@H](CS)C(=O)O [#0346, N-Acetyl- L-cysteine]	2.86			
CSCC[C@H](NC(C)=O)C(=O)O [#0350, N-Acetyl- L-methionine]	2.74			
CCCCCCCCCCCCCC[N+](C)(C)Cc1ccccc1 [#0362]				Fluorescence quench Average (Serius): 1.07
CN(CCCN)CCCN [#0380]		2.62	1.58	Fluorescence quench Average (Serius; relative fluorescence): 0.62
C[N+](C)(C)Cc1ccccc1.[OH-] [#0387, Benzyltrimethyl- ammonium Hydroxide]		3.14	2.56	400 nm [1]: 0.054; OD400 ([1]; Table 1): 0.054; pH (Table 1): 13.8; pH ([…]): 13.8; Fluorescence quench Average (Serius; relative fluorescence): 0.00
NCCCOCCCN [#0394, Bis(3-aminopropyl) ether]		3.27	1.85	400 nm [1]: 0.067; pH ([…]): 13.2; Fluorescence quench Average (Serius; relative fluorescence): 0.54

Compound	pH (Table 4)	700 nm calibrated 420 nm Average (bovine coagulated blood)	integrated value 500-700 nm Average (bovine coagulated blood)	other results
[Cl-].c1ccc(C[P+](c2ccccc2)(c2ccccc2)c2ccccc2)cc1 [#0425, Benzyltriphenyl-phosphonium chloride]		1.14	0.83	Fluorescence quench Average (Serius; relative fluorescence): 0.35
Cl.NOCc1ccccc1 [#0429, O-Benzylhydroxylamine hydrochloride]	4.10			
CC(C)(C)CC(C)(C)c1ccc(OCCOCC[N+](C)(C)Cc2ccccc2)cc1 [#0441, Benzethonium Chloride]		3.40	2.80	Fluorescence quench Average (Serius): 1.08
NCC1CCOCC1 [#0467, 4-Aminomethyl-tetrahydropyran]		1.52	1.13	400 nm [1]: 0.049; pH ([…]): 12.9; Fluorescence quench Average (Serius; relative fluorescence): 0.65
Cl.NC1(C(=O)O)CCC1 [#0473, 1-Aminocyclobutanecarboxylic acid hydrochloride]	2.18			
C1CCC2=NCCCN2CC1 [#0594, 1,8-Diazabicyclo [5.4.0]-7-undecene]		3.13	1.94	Fluorescence quench Average (Serius): 0.54
CC(=O)O.CCCCCCCCCCCCN [#0627, Dodecylamine acetate]		2.21	1.74	400 nm [1]: 0.053; OD400 ([1]; Table 1): 0.053; pH (Table 1): 10.3; pH ([…]): 10.3; Fluorescence quench Average (Serius; relative fluorescence): 1.05
C[n+]1ccc(-c2cc[n+](C)cc2)cc1 [#0652, 1,1′-Dimethyl-4,4′-bipyridinium dichloride]		2.01	2.01	Fluorescence quench Average (Serius): 0.42
CCC(N)CCN (stereo not shown) [#0678]		1.71	1.15	400 nm [1]: 0.049; pH ([…]): 13.6; Fluorescence quench Average (Serius; relative fluorescence): 0.60
CCCCCCCCCCCC[N+](C)(C)CCCS(=O)(=O)[O-] [#0694]		2.24	2.53	400 nm [1]: 0.055; pH ([…]): 8.4; Fluorescence quench Average (Serius; relative fluorescence): 1.09
CCCCCCCCC(=O)[O-].[Na+] [#0865, Sodium nonanoate]				OD400 ([1]; Table 1): 0.051; pH (Table 1): 8.9
NC[C@H](O)[C@@H](O)[C@H](O)[C@H](O)CO [#0956, D-Glucamine, reference compound]				OD400 ([1]; Table 3): 0.260; pH (Table 3): 12.3
OCCN1CC1 [#1061]		1.14	0.91	Fluorescence quench Average (Serius): 0.80
CCCCCCCCCCCCCCCC[N+](C)(C)C.[Cl-] [#1235, Hexadecyltrimethyl- ammonium chloride]		2.85	2.71	Fluorescence quench Average (Serius): 1.06
CCCCCCCCCCCC(=O)N(C)CC(=O)[O-].[Na+] [#1466, Sodium N- lauroylsarcosinate]				OD400 ([1]; Table 1): 0.05; pH (Table 1): 6.1
CCN(CC)CCO [#1575, 2-Diethylamino-ethanol]		2.41	1.21	Fluorescence quench Average (Serius): 0.61
CC(=O)N(CC(O)CO)c1c(I)c(C(=O)NCC(O)CO)c(I)c(C(=O)NCC(O)CO)c1I (stereo not shown) [Histodenz ™, reference compound]				OD400 ([1]; Table 3): 0.054; pH (Table 3): 7.3
Dodecyldimethyl(3- sulfopropyl)ammonium [#0661]		2.10	1.70	400 nm [1]: 0.051; OD400 ([1]; Table 1): 0.051; Fluorescence quench Average (Serius; relative fluorescence): 1.13

More lines, main results first:

pH (Table 4)	Compound	700 nm calibrated 420 nm Average (bovine coagulated blood)	integrated value 500-700 nm Average (bovine coagulated blood)	other results
2.34	O=C(O)CC(O)C(=O)O (racemic) [#1300, DL-Malic acid]			
2.17	CN(C)CCC(=O)O.Cl [#0702, 3-(Dimethylamino) propionic acid hydrochloride]			
2.11	N[C@@H](CS(=O)(=O)O)C(=O)O [#0745, L-cysteic acid]			
2.14	O=C(O)[C@@H](O)c1ccccc1Cl [#0746, 2-Chloro-L-mandelic acid]			
2.74	O=C(O)C(C(=O)O)C1CCCC1 [#0762, Cyclopentyl malonic acid]			
2.80	CN1CCN(Cc2ccc(C(=O)O)cc2)CC1 [#0916, 4-[(4-Methyl-1-piperazinyl)methyl]benzoic acid dihydrochloride]			
2.22	O=C(O)CCNCCNCCC(=O)O [#0936, Ethylenediamine-N,N′- dipropionic acid dihydrochloride]			
2.67	O=CNCC(=O)O [#0942, N-Formylglycine]			
2.69	O=C1O[C@H](CO)[C@@H](O)[C@H](O)[C@H]1O [#0963, D-(+)-Glucono-1,5-lactone]			
2.63	O=C(O)[C@H](O)[C@@H](O)[C@H](O[C@@H]1O[C@H](CO)[C@H](O)[C@H](O)[C@H]1O)[C@H](O)CO [#1010, Lactobionic acid]			
2.69	O=C(O)CC(CC(=O)O)C(=O)O [#1094, 1,2,3-Propanetri-carboxylic acid]			
4.92	O=C(O)/C=C/c1ccc(Cn2ccnc2)cc1 [#1108, Ozagrel hydrochloride hydrate]			
6.00	CCCCCCC(O)CO (stereo not shown) [#1109, 1,2-Octanediol]			
2.21	O=S(=O)(O)c1cccnc1 [#1165, Pyridine-3-sulfonic acid]			
4.22	Cl.N=C(N)Nc1ccc(C(=O)O)cc1 [#1249, 4-Guanidino benzoic acid hydrochloride]			
2.68	O=C(O)CC(S)C(=O)O (stereo not shown) [#1302, Thiomalic acid]			
3.08	OCCCCCl [#1365, 4-Chloro-1-butanol (contains tetrahydrofuran)]			
2.31	OCCCCBr [#1366, 4-Bromo-1-butanol (contains tetrahydrofuran)]			
3.92	CC[n+]1ccccc1Br [#1562, 2-Bromo-1-ethylpyridinium tetrafluoroborate]			
2.61	N#CCC(=O)O [#1569, Cyanoacetic acid]			
5.19	F[N+]12CC[N+](CCl)(CC1)CC2 [#1608, N-Fluoro-N′-(chloromethyl) triethylenediamine bis (tetrafluoroborate)]			
